Laboratory results published in ChEMBL document CHEMBL4321854, “Discovery of a First-in-Class Mitogen-Activated Protein Kinase Kinase 1/2 Degrader” (J Med Chem, 2019).
Activity calls are given as the source filed them. No cut-off for these calls is given here.

How the values were obtained:
[1] = target: T1, von Hippel-Lindau disease tumor suppressor/Dual specificity mitogen-activated protein kinase kinase 1 (Homo sapiens) (UniProt Q02750+P40337); experiment: (§1) Protac activity against VHL/MEK1 in human HT-29 cells harboring BRAF V600E variant assessed as degradation of MEK1 after 24 hrs by Western blot analysis; type: cell-based
[2] = target: von Hippel-Lindau disease tumor suppressor/Dual specificity mitogen-activated protein kinase kinase 1 (Homo sapiens, UniProt Q02750+P40337, V600E); experiment: as §1; type: cell-based
[3] = target: T2, von Hippel-Lindau disease tumor suppressor/Dual specificity mitogen-activated protein kinase kinase 2 (Homo sapiens) (UniProt P36507+P40337); experiment: (§2) Protac activity against VHL/MEK2 in human COLO205 cells harboring BRAF V600E variant assessed as degradation of MEK2 after 24 hrs by Western blot analysis; type: cell-based
[4] = target: von Hippel-Lindau disease tumor suppressor/Dual specificity mitogen-activated protein kinase kinase 2 (Homo sapiens, UniProt P36507+P40337, V600E); experiment: as §2; type: cell-based
[5] = target: T1, von Hippel-Lindau disease tumor suppressor/Dual specificity mitogen-activated protein kinase kinase 1 (Homo sapiens); experiment: Protac activity against VHL/MEK1 in human SK-MEL-28 cells harboring with BRAF V600E variant assessed as degradation of MEK1 by measuring reduction in MEK1 protein level at 0.3 uM after 24 hrs by Western blot analysis relative to control; type: cell-based; design: scale not given: the % may be the effect or the level left
[6] = target: T2, von Hippel-Lindau disease tumor suppressor/Dual specificity mitogen-activated protein kinase kinase 2 (Homo sapiens); experiment: Protac activity against VHL/MEK2 in human SK-MEL-28 cells harboring with BRAF V600E variant assessed as degradation of MEK2 by measuring reduction in MEK2 protein level at 0.3 uM after 24 hrs by Western blot analysis relative to control; type: cell-based; design: scale not given: the % may be the effect or the level left
[7] = target: T3, von Hippel-Lindau disease tumor suppressor/Dual specificity mitogen-activated protein kinase kinase 2/Dual specificity mitogen-activated protein kinase kinase 1 (Homo sapiens) (UniProt P36507+Q02750+P40337); experiment: Protac activity against VHL/MEK1/2 in human HT-29 cells harboring with BRAF V600E variant assessed as reduction in phosphorylation of MEK at S218/222 residues after 24 hrs by Western blot analysis; type: cell-based
[8] = target: T3, von Hippel-Lindau disease tumor suppressor/Dual specificity mitogen-activated protein kinase kinase 2/Dual specificity mitogen-activated protein kinase kinase 1 (Homo sapiens); experiment: Protac activity against VHL/MEK1/2 in human HT-29 cells harboring with BRAF V600E variant assessed as reduction in phosphorylation of ERK at T202/Y204 residues after 24 hrs by Western blot analysis; type: cell-based
HT-29 = experiment: Effect on total ERK protein expression in human HT-29 cells at 0.001 to 5 uM after 24 hrs by Western blot analysis; type: functional, cell-based
UACC-257 = experiment: Effect on total ERK protein expression in human UACC257 cells at 0.001 to 5 uM after 24 hrs by Western blot analysis; type: functional, cell-based
[9] = target: T1, von Hippel-Lindau disease tumor suppressor/Dual specificity mitogen-activated protein kinase kinase 1 (Homo sapiens); experiment: Protac activity against VHL/MEK1 in human HT-29 cells harboring with BRAF V600E variant assessed as degradation of MEK1 by measuring reduction in MEK1 protein level at 0.1 to 0.3 uM after 2 hrs by Western blot analysis; type: cell-based
[10] = target: T2, von Hippel-Lindau disease tumor suppressor/Dual specificity mitogen-activated protein kinase kinase 2 (Homo sapiens); experiment: Protac activity against VHL/MEK2 in human HT-29 cells harboring with BRAF V600E variant assessed as degradation of MEK2 by measuring reduction in MEK2 protein level at 0.1 to 0.3 uM after 2 hrs by Western blot analysis; type: cell-based
[11] = target: T1, von Hippel-Lindau disease tumor suppressor/Dual specificity mitogen-activated protein kinase kinase 1 (Homo sapiens); experiment: Protac activity against VHL/MEK1 in human HT-29 cells harboring with BRAF V600E variant assessed as degradation of MEK1 by measuring reduction in MEK1 protein level at 0.3 uM after 8 hrs by Western blot analysis relative to control; type: cell-based; design: scale not given: the % may be the effect or the level left
[12] = target: T1, von Hippel-Lindau disease tumor suppressor/Dual specificity mitogen-activated protein kinase kinase 1 (Homo sapiens); experiment: Protac activity against VHL/MEK1 in human SK-MEL-28 cells harboring with BRAF V600E variant assessed as degradation of MEK1 at 0.1 to 0.3 uM after 4 hrs by Western blot analysis; type: cell-based
[13] = target: T3, von Hippel-Lindau disease tumor suppressor/Dual specificity mitogen-activated protein kinase kinase 2/Dual specificity mitogen-activated protein kinase kinase 1 (Homo sapiens); experiment: Protac activity against VHL/MEK1/2 in human SK-MEL-28 cells harboring with BRAF V600E variant assessed as reduction in phosphorylation of MEK at S218/222 residues at 0.1 to 0.3 after >= 2 hrs by Western blot analysis; type: cell-based
[14] = target: T1, von Hippel-Lindau disease tumor suppressor/Dual specificity mitogen-activated protein kinase kinase 1 (Homo sapiens); experiment: Protac activity against VHL/MEK1 in human HT-29 cells harboring with BRAF V600E variant assessed as degradation of MEK1 at 0.3 uM after 3 to 144 hrs by Western blot analysis; type: cell-based
[15] = target: T2, von Hippel-Lindau disease tumor suppressor/Dual specificity mitogen-activated protein kinase kinase 2 (Homo sapiens); experiment: Protac activity against VHL/MEK2 in human HT-29 cells harboring with BRAF V600E variant assessed as degradation of MEK2 at 0.3 uM after 3 to 144 hrs by Western blot analysis; type: cell-based
[16] = target: T3, von Hippel-Lindau disease tumor suppressor/Dual specificity mitogen-activated protein kinase kinase 2/Dual specificity mitogen-activated protein kinase kinase 1 (Homo sapiens); experiment: Protac activity against VHL/MEK1/2 in human SK-MEL-28 cells harboring with BRAF V600E variant assessed as phosphorylation of MEK at S218/222 residues at 0.3 uM pretreated with MEK1/2 inhibitor, PD0325901 for 2 hrs followed by incubation with compound for 2 hrs by Western blot analysis; type: cell-based
[17] = target: T2, von Hippel-Lindau disease tumor suppressor/Dual specificity mitogen-activated protein kinase kinase 2 (Homo sapiens); experiment: Protac activity against VHL/MEK2 in human SK-MEL-28 cells harboring with BRAF V600E variant assessed as degradation of MEK2 by measuring MEK2 protein level at 0.3 uM pretreated with VHL ligand, VH 032 for 2 hrs followed by incubation with compound for 10 hrs by Western blot analysis; type: cell-based
[18] = target: T2, von Hippel-Lindau disease tumor suppressor/Dual specificity mitogen-activated protein kinase kinase 2 (Homo sapiens); experiment: (§3) Protac activity against VHL/MEK2 in human SK-MEL-28 cells harboring with BRAF V600E variant assessed as degradation of MEK2 by measuring MEK2 protein level at 0.3 uM pretreated with proteasome inhibitor, MG-132 for 2 hrs followed by incubation with compound for 10 hrs by Western blot analysis; type: cell-based
[19] = target: T2, von Hippel-Lindau disease tumor suppressor/Dual specificity mitogen-activated protein kinase kinase 2 (Homo sapiens); experiment: as §3, with “NEDD8-activating enzyme” for “proteasome”, “MLN4924” for “MG-132”; type: cell-based
[20] = target: T1, von Hippel-Lindau disease tumor suppressor/Dual specificity mitogen-activated protein kinase kinase 1 (Homo sapiens); experiment: Protac activity against VHL/MEK1 in human HT-29 cells harboring with BRAF V600E variant assessed as degradation of MEK1 by measuring reduction in MEK1 protein level at 0.1 uM after 10 hrs by LC-MS based Volcano plot analysis; type: cell-based
SK-MEL-28 = experiment: Antiproliferative activity against human SK-MEL-28 cells assessed as reduction in cell growth after 3 days by MTT assay; type: functional
[21] = Ratio of Plasma concentration in Swiss albino mouse at 50 mg/kg, ip measured after 8 hrs to GI50 for antiproliferative activity against human HT-29 cells; type: organism-based; details: in vivo
[22] = Ratio of Plasma concentration in Swiss albino mouse at 50 mg/kg, ip measured after 8 hrs to GI50 for antiproliferative activity against human SK-MEL-28 cells; type: organism-based; details: in vivo
[23] = target: T1, von Hippel-Lindau disease tumor suppressor/Dual specificity mitogen-activated protein kinase kinase 1 (Homo sapiens); experiment: Protac activity against VHL/MEK1 in human HT-29 cells harboring with BRAF V600E variant assessed as degradation of MEK1 at 0.1 to 0.3 uM by Western blot analysis; type: cell-based; details: TDE = time-dependent effect
[24] = target: T1, von Hippel-Lindau disease tumor suppressor/Dual specificity mitogen-activated protein kinase kinase 1 (Homo sapiens); experiment: Protac activity against VHL/MEK1 in human SK-MEL-28 cells harboring with BRAF V600E variant assessed as degradation of MEK1 at 0.1 to 0.3 uM by Western blot analysis; type: cell-based; details: TDE = time-dependent effect
[25] = target: T2, von Hippel-Lindau disease tumor suppressor/Dual specificity mitogen-activated protein kinase kinase 2 (Homo sapiens); experiment: Protac activity against VHL/MEK2 in human SK-MEL-28 cells harboring with BRAF V600E variant assessed as degradation of MEK2 at 0.1 to 0.3 uM by Western blot analysis; type: cell-based; details: TDE = time-dependent effect

T2 sequence (P36507 whole entry, looked up): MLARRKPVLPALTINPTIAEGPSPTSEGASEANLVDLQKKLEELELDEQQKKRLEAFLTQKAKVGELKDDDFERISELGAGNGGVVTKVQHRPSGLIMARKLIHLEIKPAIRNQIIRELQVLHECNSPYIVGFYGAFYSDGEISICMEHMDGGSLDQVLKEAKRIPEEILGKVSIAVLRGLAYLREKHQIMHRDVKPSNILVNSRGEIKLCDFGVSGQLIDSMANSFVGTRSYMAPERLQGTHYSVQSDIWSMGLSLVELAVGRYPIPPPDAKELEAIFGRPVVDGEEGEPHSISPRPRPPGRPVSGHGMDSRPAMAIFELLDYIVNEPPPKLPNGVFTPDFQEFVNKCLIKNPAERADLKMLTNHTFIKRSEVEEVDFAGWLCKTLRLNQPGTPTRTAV
T2 sequence (P40337 whole entry, looked up): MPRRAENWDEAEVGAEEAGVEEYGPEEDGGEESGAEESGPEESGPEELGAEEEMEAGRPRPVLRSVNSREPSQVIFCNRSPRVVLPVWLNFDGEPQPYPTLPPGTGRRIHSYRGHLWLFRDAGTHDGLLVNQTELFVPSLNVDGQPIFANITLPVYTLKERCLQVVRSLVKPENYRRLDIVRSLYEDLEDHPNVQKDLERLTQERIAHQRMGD
T3 sequence (P36507 whole entry, looked up): as the sequence (P36507 whole entry, looked up) above
T3 sequence (P40337 whole entry, looked up): as the sequence (P40337 whole entry, looked up) above
T3 sequence (Q02750 whole entry, looked up): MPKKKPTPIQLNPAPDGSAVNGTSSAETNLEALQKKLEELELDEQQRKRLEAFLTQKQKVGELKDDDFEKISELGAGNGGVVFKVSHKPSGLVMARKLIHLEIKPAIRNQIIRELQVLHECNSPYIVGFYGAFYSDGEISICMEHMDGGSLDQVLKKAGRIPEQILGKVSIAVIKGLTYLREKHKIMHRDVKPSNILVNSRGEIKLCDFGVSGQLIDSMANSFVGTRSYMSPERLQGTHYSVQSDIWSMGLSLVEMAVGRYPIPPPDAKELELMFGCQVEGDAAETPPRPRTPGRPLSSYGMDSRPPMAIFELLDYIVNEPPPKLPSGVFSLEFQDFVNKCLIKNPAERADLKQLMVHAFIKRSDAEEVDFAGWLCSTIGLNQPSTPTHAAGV
T1 sequence (P40337 whole entry, looked up): as the sequence (P40337 whole entry, looked up) above
T1 sequence (Q02750 whole entry, looked up): as the sequence (Q02750 whole entry, looked up) above
Sequence of von Hippel-Lindau disease tumor suppressor/Dual specificity mitogen-activated protein kinase kinase 2 (P36507 whole entry, looked up, stated change not applied): as the sequence (P36507 whole entry, looked up) above
Sequence of von Hippel-Lindau disease tumor suppressor/Dual specificity mitogen-activated protein kinase kinase 2 (P40337 whole entry, looked up, stated change not applied): as the sequence (P40337 whole entry, looked up) above
Sequence of von Hippel-Lindau disease tumor suppressor/Dual specificity mitogen-activated protein kinase kinase 1 (P40337 whole entry, looked up, stated change not applied): as the sequence (P40337 whole entry, looked up) above
Sequence of von Hippel-Lindau disease tumor suppressor/Dual specificity mitogen-activated protein kinase kinase 1 (Q02750 whole entry, looked up, stated change not applied): as the sequence (Q02750 whole entry, looked up) above

Question: With Cc1ncsc1-c1ccc([C@H](C)NC(=O)[C@@H]2C[C@@H](O)CN2C(=O)[C@@H](NC(=O)CCCCCCCCCCNCCCONC(=O)c2ccc(F)c(F)c2Nc2ccc(I)cc2F)C(C)(C)C)cc1 as the compound, how does the Activity [1] read?
Answer: Dose-dependent effect

Question: What about the DC50 [2] of the same compound?
Answer: 0.031 µM

Question: What about the Activity [3] of the same compound?
Answer: Dose-dependent effect

Question: What about the DC50 [4] of the same compound?
Answer: 0.011 µM

Question: What about the Activity [5] of the same compound?
Answer: > 90%

Question: What about the Activity [6] of the same compound?
Answer: > 90%

Question: And the Activity [7]?
Answer: Dose-dependent effect

Question: What about the Activity [8] of the same compound?
Answer: Dose-dependent effect

Question: What about the Activity (HT-29) of the same compound?
Answer: inactive

Question: And the Activity (UACC-257)?
Answer: inactive

Question: And the Activity [9]?
Answer: Active

Question: And the Activity [10]?
Answer: Active

Question: And the Activity [11]?
Answer: > 80%

Question: What about the Activity [12] of the same compound?
Answer: Active

Question: And the Activity [13]?
Answer: Active

Question: What about the Activity [14] of the same compound?
Answer: Active

Question: And the Activity [15]?
Answer: Active

Question: What about the Activity [16] of the same compound?
Answer: inactive

Question: And the Activity [17]?
Answer: inactive

Question: What about the Activity [18] of the same compound?
Answer: inactive

Question: And the Activity [19]?
Answer: inactive

Question: And the Activity [20]?
Answer: Active

Question: What about the “growth inhibition (GI)” value (SK-MEL-28) of the same compound?
Answer: Dose-dependent effect

Question: What about the GI50 (SK-MEL-28; SK-MEL-28, 72 h) of the same compound?
Answer: 0.083 µM

Question: And the Ratio [21]?
Answer: 3 to 20

Question: And the Ratio [22]?
Answer: 3 to 20

Question: What about the Activity [23] of the same compound?
Answer: Tde

Question: What about the Activity [24] of the same compound?
Answer: Tde

Question: And the Activity [25]?
Answer: Tde
